pIC50: −log10 of the molar value.
Target: T1, AAK1 (Homo sapiens, UniProt Q2M2I8)
T1 construct: HA; expressed in transfected cells; host or cells: HEK293F
Assay: HEK281 cell-based assay (phospho-mu2 Western blot in transfected HEK293F cells)
Conditions: 3 hours incubation, read-out: CBA IC50
Experimental: HEK293F cells were cultured in media containing DMEM (Gibco, cat. #11965), 10% FBS (SAFC Biosciences, cat. #12103C), 1×GPS (glutamine, penicillin and streptomycin). On day one, cells were plated on a 10 cm dish so that they are ˜80% confluent at time of transfection. Roughly 12 million cells were in a 10 cm dish at time of transfection. On day two, each dish was transfected with 48 ug DNA and 144 ul Lipofectamine 2000 (Invitrogen, cat.#11668-019). The DNA was comprised of a mixture (per 10 cm dish) containing 3 ug AAK1/HA/pIRES (full length human, NCBI accession no. NP_055726.2), 45 μg Flag/AP2MI/pcDNA (full length human), and 1.5 ml OPTI-MEM. The Lipofectamine 2000 is made up of a mixture (per 10 cm dish) containing 144 μl Lipofectamine 2000 and 1.5 ml OPTI-MEM. Each mixture was transferred to individual 15 ml tubes and incubated at RT for 5 minutes, and then the two mixes were combined and incubated at RT for 20 minutes. Growth media was then aspirated from each 10 cm plate and replaced with 10 ml of DMEM+10% FBS (no GPS). Finally, 3 ml DNA/Lipofectamine mix was added to each 10 cm dish and mix gently followed by incubate of plate overnight at 37° C. and 5% CO2.
On day three, compounds were diluted in 100% DMSO at 1000× final concentration, followed by 3-fold serial dilutions for a total of 5 concentrations tested. Four compounds were tested per 10 cm dish. One ul of each compound dilution was then pipetted into a deep-well, 96-well plate, followed by addition of 500 μl DMEM+0.5% FBS into each well for a 2× final concentration of each compound. Cells were resuspended in a 10 cm dish by simple pipetting (HEK293 cells come off the plate that easy at this point) and then transferred to a 50 ml conical tube and pelleted by centrifugation at 1000 rpm for 5 min. Cell pellets were then resuspended in 2.75 ml DMEM+0.5% FBS per 10 cm dish and 100 μl of cell suspension transferred into each well of 96-well TC plate. Finally, 100 μl of 2× compound diluted in DMEM+0.5% FBS was then added into wells containing cell suspension for a 1× final concentration. Plates were then incubated at 37° C. and 5% CO2 for 3 hours followed by transferring of cell suspensions from each well into 12-tube PCR strips. The PCR strips were spun in a tip rack at 1000 rpm for 5 minutes to pellet cells and media was then removed by pipetting without disturbing the cell pellet.
To prepare for Western Blot analysis, cell pellets were resuspend in 40 ul 1×LDS-PAGE sample buffer (Invitrogen, cat.#NP0008)+2× Halt phophatase and protease inhibitor cocktail (Thermo Scientific, cat.#1861284), followed by sonicating each with microtip sonicator set at 5 for 8-10 seconds. Five ul of 10× NuPage Sample Reducing Agent (with 50 mM DTT) was to each sample followed by heat denaturing at 70 C for 10 min on PCR machine. A total of 10 μl per sample was loaded into each lane of a 4-20% Tris-Glycine Criterion 26-well gel (Biorad, cat.#345-0034) for the phospho-mu2 blot and 10 μl per lane in a 4-12% Bis-Tris (+MES buffer) NuPAGE 26-well gel (Invitrogen, cat.#WG1403BX10) for the mu2 blot. For controls, 2 ng of phospho-mu2 or 20 ng mu2/Flag proteins were loaded in the last well of each gel. After SDS-PAGE, samples on each gel were transferred to PVDF membrane using an iBlot and membranes were blocked for one hour in TBST+5% milk, followed by wash 3× for 5-10 min with TBST. Criterion gels were probed with rabbit anti-phospho-mu2 (1:5000; a rabbit polyclonal antibody produced by New England Peptide and affinity purified at Lexicon) in TBST+5% BSA, whereas, NuPAGE gels were probed with mouse anti-Flag (1:500; Sigma, cat.#F1804) in TBST+5% milk, and these primary antibodies were incubated overnight at 4° C. on a rocker.

T1 sequence (Q2M2I8 1-863 isoform Q2M2I8-2): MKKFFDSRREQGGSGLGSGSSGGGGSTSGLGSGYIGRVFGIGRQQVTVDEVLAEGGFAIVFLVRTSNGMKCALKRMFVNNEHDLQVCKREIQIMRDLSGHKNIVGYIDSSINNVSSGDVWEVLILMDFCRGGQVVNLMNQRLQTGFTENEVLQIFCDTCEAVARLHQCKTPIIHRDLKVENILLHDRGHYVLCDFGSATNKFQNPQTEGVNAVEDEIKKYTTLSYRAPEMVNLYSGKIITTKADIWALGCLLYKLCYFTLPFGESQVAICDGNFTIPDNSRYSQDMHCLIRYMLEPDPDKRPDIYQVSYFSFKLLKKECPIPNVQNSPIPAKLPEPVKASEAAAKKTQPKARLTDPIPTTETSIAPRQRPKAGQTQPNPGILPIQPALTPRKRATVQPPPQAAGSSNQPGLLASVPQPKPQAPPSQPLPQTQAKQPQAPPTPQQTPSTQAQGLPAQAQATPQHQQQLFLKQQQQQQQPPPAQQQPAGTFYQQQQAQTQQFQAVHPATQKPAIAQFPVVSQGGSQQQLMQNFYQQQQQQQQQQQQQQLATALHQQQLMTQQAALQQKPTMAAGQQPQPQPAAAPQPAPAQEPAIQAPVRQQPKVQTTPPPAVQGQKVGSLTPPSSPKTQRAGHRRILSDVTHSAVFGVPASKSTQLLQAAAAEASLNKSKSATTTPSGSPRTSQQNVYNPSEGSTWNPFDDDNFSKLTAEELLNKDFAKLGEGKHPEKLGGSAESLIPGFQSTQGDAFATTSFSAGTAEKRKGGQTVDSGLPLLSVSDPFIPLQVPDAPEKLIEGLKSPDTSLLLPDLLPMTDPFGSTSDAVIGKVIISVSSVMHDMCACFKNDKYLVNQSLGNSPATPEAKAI

| pIC50 | SMILES |
| --- | --- |
| ≥ 7.00 | CC(C)(C)CCNc1ccc2ncc(-c3ccc(CN)cc3)n2n1 [3-(4-(aminomethyl)phenyl)-N-(3,3-dimethylbutyl)imidazo[1,2-b]pyridazin-6-amine] |
| ≥ 7.00 | NCc1ccc(-c2cnc3ccc(NCCCc4ccccc4F)nn23)cc1 [3-(4-(aminomethyl)phenyl)-N-(3-(2-fluorophenyl)propyl)imidazo[1,2-b]pyridazin-6-amine] |
| ≥ 7.00 | NCc1ccc(-c2cnc3ccc(NCCCc4cccc(F)c4)nn23)cc1 [3-(4-(aminomethyl)phenyl)-N-(3-(3-fluorophenyl)propyl)imidazo[1,2-b]pyridazin-6-amine] |
| ≥ 7.00 | NCc1ccc(-c2cnc3ccc(NCCCc4ccc(F)cc4)nn23)cc1 [3-(4-(aminomethyl)phenyl)-N-(3-(4-fluorophenyl)propyl)imidazo[1,2-b]pyridazin-6-amine] |
| ≥ 7.00 | NCc1ccc(-c2cnc3ccc(NCCCOC4CCCC4)nn23)cc1 [3-(4-(aminomethyl)phenyl)-N-(3-(cyclopentyloxy)propyl)imidazo[1,2-b]pyridazin-6-amine] |
| ≥ 7.00 | NCc1ccc(-c2cnc3ccc(NCCc4cccc(C(F)(F)F)c4)nn23)cc1 [3-(4-(aminomethyl)phenyl)-N-(3-(trifluoromethyl)phenethyl)imidazo[1,2-b]pyridazin-6-amine] |
| ≥ 7.00 | NCc1ccc(-c2cnc3ccc(NCCc4cccc(F)c4)nn23)cc1 [3-(4-(aminomethyl)phenyl)-N-(3-fluorophenethyl)imidazo[1,2-b]pyridazin-6-amine] |
| ≥ 6.00 | NCc1ccc(-c2cnc3ccc(NCCCF)nn23)cc1 [3-(4-(aminomethyl)phenyl)-N-(3-fluoropropyl)imidazo[1,2-b]pyridazin-6-amine] |
| ≥ 7.00 | COc1cccc(CCNc2ccc3ncc(-c4ccc(CN)cc4)n3n2)c1 [3-(4-(aminomethyl)phenyl)-N-(3-methoxyphenethyl)imidazo[1,2-b]pyridazin-6-amine] |
| ≥ 7.00 | NCc1ccc(-c2cnc3ccc(NCCCCF)nn23)cc1 [3-(4-(aminomethyl)phenyl)-N-(4-fluorobutyl)imidazo[1,2-b]pyridazin-6-amine] |
| ≥ 6.00 | NCc1ccc(-c2cnc3ccc(NCCc4ccc(F)cc4)nn23)cc1 [3-(4-(aminomethyl)phenyl)-N-(4-fluorophenethyl)imidazo[1,2-b]pyridazin-6-amine] |
| ≥ 7.00 | COc1ccc(CCNc2ccc3ncc(-c4ccc(CN)cc4)n3n2)cc1 [3-(4-(aminomethyl)phenyl)-N-(4-methoxyphenethyl)imidazo[1,2-b]pyridazin-6-amine] |
| ≥ 7.00 | NCc1ccc(-c2cnc3ccc(NCCCCc4ccccc4)nn23)cc1 [3-(4-(aminomethyl)phenyl)-N-(4-phenylbutyl)imidazo[1,2-b]pyridazin-6-amine] |
| ≥ 6.00 | NCc1ccc(-c2cnc3ccc(NCCCCCF)nn23)cc1 [3-(4-(aminomethyl)phenyl)-N-(5-fluoropentyl)imidazo[1,2-b]pyridazin-6-amine] |
| ≥ 6.00 | NCc1ccc(-c2cnc3ccc(NCC4CCOC4)nn23)cc1 (centres unmarked) [3-(4-(aminomethyl)phenyl)-N-((tetrahydrofuran-3-yl)methyl)imidazo[1,2-b]pyridazin-6-amine] |
| ≥ 6.00 | NCc1ccc(-c2cnc3ccc(NCC4CCC4)nn23)cc1 [3-(4-(aminomethyl)phenyl)-N-(cyclobutylmethyl)imidazo[1,2-b]pyridazin-6-amine] |

| pIC50 | SMILES |
| --- | --- |
| ≥ 6.00 | NCc1ccc(-c2cnc3ccc(NCC4CCCC4)nn23)cc1 [3-(4-(aminomethyl)phenyl)-N-(cyclopentylmethyl)imidazo[1,2-b]pyridazin-6-amine] |
| ≥ 6.00 | NCc1ccc(-c2cnc3ccc(NCC4CC4)nn23)cc1 [3-(4-(aminomethyl)phenyl)-N-(cyclopropylmethyl)imidazo[1,2-b]pyridazin-6-amine] |
| ≥ 6.00 | CC(C)CNc1ccc2ncc(-c3ccc(CN)cc3)n2n1 [3-(4-(aminomethyl)phenyl)-N-isobutylimidazo[1,2-b]pyridazin-6-amine] |
| ≥ 6.00 | CC(C)CCNc1ccc2ncc(-c3ccc(CN)cc3)n2n1 [3-(4-(aminomethyl)phenyl)-N-isopentylimidazo[1,2-b]pyridazin-6-amine] |
| ≥ 7.00 | CC(C)(C)CNc1ccc2ncc(-c3ccc(CN)cc3)n2n1 [3-(4-(aminomethyl)phenyl)-N-neopentylimidazo[1,2-b]pyridazin-6-amine] |
| ≥ 6.00 | CCCCCNc1ccc2ncc(-c3ccc(CN)cc3)n2n1 [3-(4-(aminomethyl)phenyl)-N-pentylimidazo[1,2-b]pyridazin-6-amine] |
| ≥ 6.00 | NCc1ccc(-c2cnc3ccc(NCCc4ccccc4)nn23)cc1 [3-(4-(aminomethyl)phenyl)-N-phenethylimidazo[1,2-b]pyridazin-6-amine] |
| ≥ 6.00 | CCCNc1ccc2ncc(-c3ccc(CN)cc3)n2n1 [3-(4-(aminomethyl)phenyl)-N-propylimidazo[1,2-b]pyridazin-6-amine] |
| ≥ 7.00 | CC(C)OC(=O)N1CCN(c2ccc3ncc(-c4ccccc4)n3n2)CC1 [4-(3-Phenyl-imidazo[1,2-b]pyridazin-6-yl)-piperazine-1-carboxylic acid isopropyl ester] |
| ≥ 7.00 | CN(CCNc1ccc2ncc(-c3ccc(C(N)=O)cc3)n2n1)C(=O)CC(C)(C)C [4-(6-((2-(N,3,3-trimethylbutanamido)ethyl)amino)imidazo[1,2-b]pyridazin-3-yl)benzamide] |
| ≥ 8.00 | NC(=O)c1ccc(-c2cnc3ccc(NCCc4ccccc4OC(F)(F)F)nn23)cc1 [4-(6-((2-(trifluoromethoxy)phenethyl)amino)imidazo[1,2-b]pyridazin-3-yl)benzamide] |
| ≥ 8.00 | CCOc1ccccc1CCNc1ccc2ncc(-c3ccc(C(=O)NC)cc3)n2n1 [4-(6-((2-ethoxyphenethyl)amino)imidazo[1,2-b]pyridazin-3-yl)-N-methylbenzamide] |
| ≥ 7.00 | CC(C)OCCNc1ccc2ncc(-c3ccc(C(=O)NCCN4CCCC4)cc3)n2n1 [4-(6-((2-isopropoxyethyl)amino)imidazo[1,2-b]pyridazin-3-yl)-N-(2-(pyrrolidin-1-yl)ethyl)benzamide] |
| ≥ 8.00 | COc1ccccc1CCNc1ccc2ncc(-c3ccc(C(N)=O)cc3)n2n1 [4-(6-((2-methoxyphenethyl)amino)imidazo[1,2-b]pyridazin-3-yl)benzamide] |
| ≥ 7.00 | NC(=O)c1ccc(-c2cnc3ccc(NCCc4cccc(C(F)(F)F)c4)nn23)cc1 [4-(6-((3-(trifluoromethyl)phenethyl)amino)imidazo[1,2-b]pyridazin-3-yl)benzamide] |

| SMILES | pIC50 |
| --- | --- |
| CC(C)(C)OCCCNc1ccc2ncc(-c3ccc(CN)cc3)n2n1 [3-(4-(aminomethyl)phenyl)-N-(3-(tert-butoxy)propyl)imidazo[1,2-b]pyridazin-6-amine] | ≥ 7.00 |
| CCN(CC)CCNC(=O)c1ccc(-c2cnc3ccc(NCCOC(C)(C)C)nn23)cc1 [4-(6-((2-(tert-butoxy)ethyl)amino)imidazo[1,2-b]pyridazin-3-yl)-N-(2-(diethylamino)ethyl)benzamide] | ≥ 7.00 |
| CNC(=O)c1ccc(-c2cnc3ccc(NCCOC(C)(C)C)nn23)cc1 [4-(6-((2-(tert-butoxy)ethyl)amino)imidazo[1,2-b]pyridazin-3-yl)-N-methylbenzamide] | ≥ 7.00 |
| CC(C)COCCNc1ccc2ncc(-c3ccc(C(=O)NCCN4CCCC4)cc3)n2n1 [4-(6-((2-isobutoxyethyl)amino)imidazo[1,2-b]pyridazin-3-yl)-N-(2-(pyrrolidin-1-yl)ethyl)benzamide] | ≥ 7.00 |
